“Also recorded” adds a separate entry of the source. Counter-ions that a name gives are not always drawn.
Test system: A/HK/2671/2019 (H3N2)
Assay type: cell-based, influenza virus
Settings: not given

SMILES	antiviral activity against A/HK/2671/2019 (H3N2)
NC12CC3CC(CC(C3)C1)C2 [Amantadine, Amantadine hydrochloride]	did not show antiviral activity; also recorded: no significant protection

Same assay, conditions: read-out: EC50 ± SD A/HK/2671/2019 (H3N2)

SMILES	EC50
COc1ccc(Br)cc1CNC12CC3CC(CC(C3)C1)C2 [ABMA, 1-adamantyl (5-bromo-2-methoxybenzyl) amine]	2830 ± 260 nM
NC(=O)c1ncn([C@@H]2O[C@H](CO)[C@@H](O)[C@H]2O)n1 [Ribavirin, ribavirin]	19800 ± 3260 nM
CCOC(=O)C1=C[C@@H](OC(CC)CC)[C@H](NC(C)=O)[C@@H](N)C1 [Oseltamivir, Oseltamivir phosphate]	1790 ± 640 nM
NC12CC3CC(CC(C3)C1)C2 [Amantadine, Amantadine hydrochloride]	> 100000 nM
COc1ccc(Br)cc1CNC12CC3CC(C)(CC(C)(C3)C1)C2 [DABMA, 1,3-dimethyl-1-adamantyl (5-bromo-2-methoxybenzyl) amine]	2950 ± 270 nM
